One assay relates to L1210 cells. Description: L1210 murine leukemia cell growth inhibition in vitro. It counts as cell-based. Particulars: Mus musculus, 72 h, Table 1, three days incubation, 50% inhibition of growth, read-out: L1210 in vitro ID50. The protocol: Another test protocol uses L1210 cells, a murine leukemia cell line, grown in RPMI 1640 supplemented with 5% fetal bovine serum and gentamicin ([…]). Drug dilutions are prepared in the appropriate solvent and 20 µl of each dilution are added to 24-well Linbro tissue culture plates, followed by the addition of 2.0 ml of cell suspension containing 3 x 10^4 cells per ml. Solvent and medium controls are included in each test. After incubation at 37°C forthree days in 5% C02, the contents of each well are removed and the cells counted in a ZBI Coulter counter. Percent growth are calculated relative to the controls and the levels of drug activity are expressed as ID50 in moles per liter.

The test system of assay [1] is lymphocytic leukemia P388. Description: in vivo lymphocytic leukemia P388 test. The arrangement: species or system mice. The note with it: for P388 in vivo Cures: remark printed beside T/C × 100; for response vs control in vivo at 3.12 mg/kg: Dose 3.12 mg/kg intraperitoneally once daily for five days; for response vs control in vivo at 6.25 mg/kg: Dose 6.25 mg/kg intraperitoneally once daily for five days; for response vs control in vivo at 12.5 mg/kg: Dose 12.50 mg/kg intraperitoneally once daily for five days; for response vs control in vivo at 25 mg/kg: Dose 25.00 mg/kg intraperitoneally once daily for five days; for response vs control in vivo at 50 mg/kg: Dose 50.00 mg/kg intraperitoneally once daily for five days. The protocol:
Another test protocol is the in vivo lymphocytic leukemia P388 test. The animals used are either male or female CD2F, mice. There are six or seven animals per test group. The tumor transplant is by intraperitoneal injection of dilute ascitic fluid containing cells of lymphocytic leukemia P388. The test compounds are administered intraperitoneally once daily for five consecutive days at various doses following tumor inoculation. The animals are weighed and survivors are recorded on a regular basis for 30 days. A compound is designated "toxic" if, at a given dose, all animals died prior to four days after the first injection of drug. A ratio of survival time for treated (T)/control (C) animals is calculated. A criterion for efficacy is a ratio T/C times 100 greater than or equal to 125. See Cancer Chemotherapy Reports, Part 3, 3; 1 (1972) for a comprehensive discussion of the protocol.

For the next assay, the system named is HCT-8 cells. Description: in vitro proliferating human colon adenocarcinoma (HCA) cell screen. The note with it: Table 1, 60 to 65 hours with compound, 50% inhibition of growth, read-out: HCA—3 in vitro ID50. The class given is cell-based. Here is the method:
One test protocol is the in vitro proliferating human colon adenocarcinoma (HCA) cell screen. In this test, HCT-8 cells (HCA cell line received from Yale University) are trypsinized using trypsin-EDTA. A single cell suspension is achieved by passing the cells through a 26 gauge needle with a 20 cc syringe. A cell suspension is prepared using RPMI 1640 + 10% FCS + 50) g/ml gentamicin sulfate with a cell concentration of approximately 30,000 cells/ml. The cell suspension is dispensed in Linbro 24-well plates; 1 ml/well. The plates are incubated for approximately 48 hours at 37°C in a 5% C02 atmosphere. At this time test compounds are added in the appropriate concentration. Five µl of the 200 µg/ml stock solution is added to each well in primary test. Ten µl of the appropirate dilution is added to each well for a titration test. The plates are re-incubated an additional 60 to 65 hours at 37°C in a 5% C02 atmosphere. The cells are lysed using a mix of cationic surfactant, glacial acetic acid, and sodium chloride. Two ml of the lysed cell suspension from each well is added to 8 ml of diluent. The number of nuclei is determined using a Coulter counter (ZBI model), and a percent growth for each drug concentration is calculated. From this, an ID50 molar concentration of a compound (that results in 50% inhibition of growth) is determined.

The test system of assay [2] is Streptococcus faecalis 05045. Description: in vitro antibacterial/antifungal (ABF) agar-disk diffusion test. The class given is cell-based. Particulars: Enterococcus faecalis, AM-09 medium, read-out: ABF Zone Diameter (cont. in mg/ml) S. Fae-calis; for zone of inhibition at 1000 µg/mL: 1 mg/ml; for zone of inhibition at 500 µg/mL: 0.5 mg/ml; for zone of inhibition at 3000 µg/mL: 3 mg/ml. Here is the method: (§1) Still another test protocol is the in vitro antibacterial/antifungal (ABF) test. Compounds are tested for antimicrobial activity in an agar-disk diffusion assay, a standard microbiological technique for testing antibiotics'. After incubation of each culture with a test compound, a zone of inhibition is determined. The zone diameter (mm) of active compounds ranges from a minimum of 13.5 mm to as high as 60 mm, with a greater diameter reflecting higher activity. For convenience, values are reported for two gram-negative bacteria (Aerobacter aerogenes 0126 and Escherichia coli 04863), two gram-positive bacteria (Bacillus subtilis 04555 and Streptococcus faecalis 05045 utilizing AM-09 medium), and one mycelial fungus (Penicillium avellaneum M2988).
(In general: In agar diffusion tests the substance spreads into inoculated agar from a disc or well.)

In a further assay the test system is Bacillus subtilis 04555. The description is as above. It counts as cell-based. Particulars: read-out: ABF Zone Diameter (cont. in mg/ml) B. Sub-tilis; for zone of inhibition at 500 µg/mL: 0.5 mg/ml; for zone of inhibition at 3000 µg/mL: 3 mg/ml. The protocol:
as §1

Assay [3] relates to Aerobacter aerogenes 0126. The description is as above. The class given is cell-based. The note with it: Klebsiella aerogenes, read-out: ABF Zone Diameter (cont. in mg/ml) A. Aero-genes; for zone of inhibition at 100 µg/mL: 0.1 mg/ml; for zone of inhibition at 3000 µg/mL: 3 mg/ml. Here is the method:
as §1

The test system of another assay is Escherichia coli 04863. Described as above. It counts as cell-based. The note with it: read-out: ABF Zone Diameter (cont. in mg/ml) E. Coli; for zone of inhibition at 3000 µg/mL: 3 mg/ml; for zone of inhibition at 500 µg/mL: 0.5 mg/ml. Here is the method: as §1
In assay [4] the test system is Penicillium avellaneum M2988. Described as above. The class given is cell-based. The note with it: Hamigera avellanea, read-out: ABF Zone Diameter (cont. in mg/ml) P. Avell-aneum; for zone of inhibition at 3000 µg/mL: 3 mg/ml. Here is the method: as §1
The mark [5] stands for this setting: Mus musculus, P388, ip, 120 h, read-out: P388 in vivo T/C × 100.

Regarding `CCN(CC)CCn1nc2c3c(c(NCCN)ccc31)Sc1ccccc1-2` [CH2CH2N(C2H5)2 / NHCH2CH2NH2, N-[2-[2-(Diethylamino)ethyl]-2H[1]benzothiopyrano[4,3,2-cd]indazol-5-yl]-1,2-ethanediamine], the IC50 in the assay with L1210 cells worked out at 46 nM; with HCT-8 cells it was 97 nM. The “P388 in vivo Cures” value in assay [1] (Dose 12.50 mg/kg) and in assay [1] (Dose 25.00 mg/kg) was “Cures” in each case. Further, the response vs control in vivo at 3.12 mg/kg in assay [1] (setting [5]) worked out at 178%. Also, the response vs control in vivo at 6.25 mg/kg in assay [1] (setting [5]) turned out to be 215%. Also, the response vs control in vivo at 12.5 mg/kg in assay [1] (setting [5]) was found to be 297%. In assay [1] (setting [5]), the response vs control in vivo at 25 mg/kg amounted to 148%. In assay [2], the zone of inhibition at 1000 µg/mL turned out to be 15 mm. Also, the figures for the zone of inhibition at 500 µg/mL (in the assay with Bacillus subtilis 04555; in assay [3] (0.5 mg/ml)) were 20 mm and 19 mm, respectively. In addition, the zone of inhibition at 3000 µg/mL (in the assay on Escherichia coli 04863; in assay [4]) was 0 mm throughout.

Take `CCN(CC)CCn1nc2c3c(c(NCCNCCO)ccc31)Sc1ccccc1-2` [CH2CH2N(C2H5)2 / NHCH2CH2NHCH2CH2OH, 2-[[2-[[2-[2-(Diethylamino)ethyl]-2H[1]benzothiopyrano[4,3,2-cd]indazol-5-yl]amino]ethyl]amino]ethanol]: the values for the IC50 in the assay with L1210 cells and in the assay on HCT-8 cells were 82 nM and 200 nM, respectively. In assay [1] (setting [5]), the response vs control in vivo at 3.12 mg/kg was found to be 209%. Further, the response vs control in vivo at 6.25 mg/kg in assay [1] (setting [5]) worked out at 219%. The response vs control in vivo at 12.5 mg/kg in assay [1] (setting [5]) came out at 280%. For the same compound, the zone of inhibition at 500 µg/mL was 16 mm in assay [2], 18 mm in the assay on Bacillus subtilis 04555 and 26 mm with Escherichia coli 04863. Further, the zone of inhibition at 100 µg/mL in assay [3] worked out at 15 mm. Besides, the zone of inhibition at 3000 µg/mL in assay [4] was determined as 0 mm.

With `CCN(CC)CCn1nc2c3c(c(NC(C)=O)ccc31)Sc1ccccc1-2` [CH2CH2N(C2H5)2 / NHCOCH3, N-[2-[2-(Diethylamino)ethyl]-2H-[1]benzothiopyrano[4,3,2-cd]indazol-5-yl]acetamide], the IC50 with L1210 cells is 240 nM; with HCT-8 cells it was 600 nM. Besides, in assay [1] (setting [5]), the response vs control in vivo at 12.5 mg/kg came to 170%. The zone of inhibition at 3000 µg/mL in assay [2] came to 15 mm; in assay [3] it was 16 mm; with Escherichia coli 04863, 16 mm; in assay [4], 0 mm. In the assay on Bacillus subtilis 04555, the zone of inhibition at 500 µg/mL came to 16 mm.

`CCN(CC)CCn1nc2c3c(c(NCCN4CCOC4=O)ccc31)Sc1ccccc1-2` [CH2CH2N(C2H5)2 /]: the IC50 in the assay on L1210 cells came out at 950 nM; in the assay with HCT-8 cells it was 1800 nM. For the same compound, the response vs control in vivo at 47.45 mg/kg in assay [1] (Mus musculus, P388, ip, 120 h, Dose 47.45 mg/kg intraperitoneally once daily for five days, read-out: P388 in vivo T/C × 100) was found to be 141%. In addition, the response vs control in vivo at 50 mg/kg in assay [1] (setting [5]) was 140%. Further, in assay [1] (Mus musculus, P388, ip, 120 h, Dose 63.28 mg/kg intraperitoneally once daily for five days, read-out: P388 in vivo T/C × 100), the response vs control in vivo at 63.28 mg/kg turned out to be 165%. In assay [1] (Mus musculus, P388, ip, 120 h, Dose 84.38 mg/kg intraperitoneally once daily for five days, read-out: P388 in vivo T/C × 100), the response vs control in vivo at 84.38 mg/kg was determined as 193%. Also, the response vs control in vivo at 100 mg/kg in assay [1] (Mus musculus, P388, ip, 120 h, Dose 100.00 mg/kg intraperitoneally once daily for five days, read-out: P388 in vivo T/C × 100) was 218%. Besides, the zone of inhibition at 500 µg/mL in assay [2] stood at 14 mm. For the same compound, the zone of inhibition at 3000 µg/mL with Bacillus subtilis 04555 was 13 mm; in assay [3], 0 mm; in the assay on Escherichia coli 04863 it was 0 mm; in assay [4], 0 mm.

As for `CN(C)CCn1nc2c3c(c(N)ccc31)Sc1ccccc1-2` [CH2CH2N(CH2)2 / NH2], the figures for the IC50 in the assay on L1210 cells and with HCT-8 cells were 80 nM and 280 nM, respectively. Moreover, in assay [1] (setting [5]), the response vs control in vivo at 6.25 mg/kg amounted to 126%. The response vs control in vivo at 12.5 mg/kg in assay [1] (setting [5]) was 160%. In addition, in assay [2], the zone of inhibition at 1000 µg/mL turned out to be 20 mm. For the same compound, the zone of inhibition at 500 µg/mL amounted to 15 mm in the assay with Bacillus subtilis 04555, 16 mm in the assay with Escherichia coli 04863 and 17 mm in assay [4] (0.5 mg/ml). Further, the zone of inhibition at 100 µg/mL in assay [3] was found to be 14 mm.

Regarding `CCN(CC)CCn1nc2c3c(c([N+](=O)[O-])ccc31)Sc1ccccc1-2` [CH2CH2N(CH2H5)2 / HO2, N,N-Diethyl-5-nitro-2H[1]benzothiopyrano[4,3,2-cd]-indazole-2-ethanamine], the IC50 turned out to be 56 nM in the assay on L1210 cells and 200 nM with HCT-8 cells. Further, the response vs control in vivo at 25 mg/kg in assay [1] (setting [5]) came out at 138%. For the same compound, the response vs control in vivo at 50 mg/kg in assay [1] (setting [5]) is 170%. Further, the zone of inhibition at 3000 µg/mL was found to be 14 mm in assay [2], 14 mm in the assay with Bacillus subtilis 04555, 0 mm in assay [3] and 15 mm in assay [4]. Also, the zone of inhibition at 1000 µg/mL with Escherichia coli 04863 (1 mg/ml) was 14 mm.

Take `CN(C)CCn1nc2c3c(c([N+](=O)[O-])ccc31)Sc1ccccc1-2` [CH2CH2N(CH3)2 / NO2, N,N dimethyl-5-nitro-2H[1]benzothiopyrano[4,3,2-cd]indazole-2-ethanamine]: the IC50 came out at 79 nM in the assay on L1210 cells and 97 nM with HCT-8 cells. In addition, the response vs control in vivo at 12.5 mg/kg in assay [1] (setting [5]) came out at 158%. The zone of inhibition at 3000 µg/mL (in assay [2]; in the assay on Bacillus subtilis 04555) was 15 mm in each case. Also, the zone of inhibition at 1000 µg/mL in assay [3] (1 mg/ml) was found to be 15 mm. The zone of inhibition at 100 µg/mL was determined as 14 mm with Escherichia coli 04863 (0.1 mg/ml) and 15 mm in assay [4] (0.1 mg/ml).
